Test [1] has as its target T1, LapD (LapD-sfGFP, full-length), with LapG (Pseudomonas fluorescens, UniProt Q3KK31).
T1 construct: full-length transmembrane LapD with C-terminal TEV site-sfGFP-His6, E. coli, detergent-solubilized (LMNG/CHAPS); LapG without signal peptide carrying para-azidophenylalanine at V205, sfGFP cut off; with Periplasmic cysteine protease LapG
T1 sequence (Q3KK31 1-648): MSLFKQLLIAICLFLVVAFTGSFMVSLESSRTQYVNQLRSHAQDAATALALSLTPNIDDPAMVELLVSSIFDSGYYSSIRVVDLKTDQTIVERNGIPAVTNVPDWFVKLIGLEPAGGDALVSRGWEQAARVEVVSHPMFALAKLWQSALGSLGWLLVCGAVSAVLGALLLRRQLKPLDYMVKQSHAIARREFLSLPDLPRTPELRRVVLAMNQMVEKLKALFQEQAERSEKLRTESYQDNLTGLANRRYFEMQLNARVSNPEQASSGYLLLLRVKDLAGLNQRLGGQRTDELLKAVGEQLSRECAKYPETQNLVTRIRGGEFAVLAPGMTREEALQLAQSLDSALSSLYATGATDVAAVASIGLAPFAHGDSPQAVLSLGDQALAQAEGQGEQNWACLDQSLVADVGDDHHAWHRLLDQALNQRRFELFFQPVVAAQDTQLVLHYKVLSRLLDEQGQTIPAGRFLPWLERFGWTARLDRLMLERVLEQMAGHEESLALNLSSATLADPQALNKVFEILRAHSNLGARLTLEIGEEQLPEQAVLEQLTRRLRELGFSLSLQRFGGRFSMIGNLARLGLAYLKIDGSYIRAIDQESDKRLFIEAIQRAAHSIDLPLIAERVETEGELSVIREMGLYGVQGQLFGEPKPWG
T1 sequence (Q3KK32 50-251 partner): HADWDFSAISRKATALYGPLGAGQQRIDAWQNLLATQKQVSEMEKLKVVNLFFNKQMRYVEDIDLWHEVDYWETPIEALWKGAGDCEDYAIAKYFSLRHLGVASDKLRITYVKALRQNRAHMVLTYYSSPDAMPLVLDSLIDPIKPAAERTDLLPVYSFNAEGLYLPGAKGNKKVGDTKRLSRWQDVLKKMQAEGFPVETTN
Put plainly: UV cross-linking of LapG-V205pAzF to LapD-sfGFP, in-gel fluorescence. The test is classed as binding. The note with it: 2 μM LapD-sfGFP, 1 μM LapG, 2.5 mM CaCl2, pH 7.5, room temperature; detergent-solubilized; concentration range of sharp transition, not an EC50.

For test [2], the target named is full-length P. fluorescens LapD fused C-terminally to superfolder GFP (LapD-sfGFP), wild type (P. fluorescens) (UniProt Q3KK31). Put plainly: cross-linking.

Values joined by “and” are separate entries in the source; they are usually repeats but may differ in a detail not shown here. Identical values can stand only once.

In the case of `Nc1nc2c(ncn2[C@@H]2O[C@@H]3COP(=O)(O)O[C@H]4[C@@H](O)[C@H](n5cnc6c(=O)[nH]c(N)nc65)O[C@@H]4COP(=O)(O)O[C@H]3[C@H]2O)c(=O)[nH]1` [c-di-GMP], the “switch in LapG cross-linking” value in test [1] lay in the range of 0.75 to 1 µM.

Consider “non-fluorescent P. fluorescens LapG with pAzF at Y206 (enzyme)”, for which, in test [2], the other (LapG:LapD molar ratio) was 0.3 and 0.5.
